For the assay, the system named is 377384-186-R-J1-PDC complex spheroid viability. In words: Anticancer human tumor 377384-186-R-J1-PDC patient-derived pancreatic carcinoma cell line growth inhibition [CLK]. Particulars: for viability, T/C: stronger effect = lower value; for pIC50: curve of compound. An excerpt: A high-throughput screen of multi-cell type tumor spheroids was designed to identify active combinations of […] and targeted small molecules. Complex spheroids include a stromal component modeled by human endothelial cells (HUVEC) and fibroblasts modeled by human mesenchymal stem cells (MSCs). The concentration ranges selected for each drug and investigational agent were based upon clinically achievable concentrations if the clinical Cmax of the agent was known.
Compounds. The drugs and investigational agents: cirtuvivint (SM08502; NSC835563), CC-671 (NSC850746), vemurafenib (NSC761431), tapotoclax (NSC804041), sotorasib (NSC818433), adagrasib (NSC831453), MRTX-1133 (NSC836407), BAY2416964 (NSC825713), copanlisib (NSC816437), inavolisib (NSC800729), abemaciclib (NSC768073), osimertinib (NSC779217), entinostat (NSC756642), eltanexor (KPT-8602, NSC794443), venetoclax (NSC766270), ceralasertib (NSC777638), bortezomib (NSC756655), olaparib (NSC753686), talazoparib (NSC767125), alisertib (NSC759677), peposertib (NSC802822), gemcitabine (NSC613327), 5-fluorouracil (NSC19893), SN-38 (NSC673596), oxaliplatin (NSC266046), paclitaxel (NSC125973), and doxorubicin (NSC123127), were obtained from the National Cancer Institute (NCI) Developmental Therapeutics Program Chemical Repository. The FDA-approved anticancer drug set is available from the Developmental Therapeutics Program at https://dtp.cancer.gov/organization/dscb/obtaining/available plates.htm. […] The stock solutions were prepared in dimethyl sulfoxide (DMSO, Sigma-Aldrich, St. Louis, MO, cat. D2650), except for the platinum complexes which were prepared in saline (Quality Biological, Gaithersburg, MD, cat. 114-055-101), at 800-fold the tested concentration and stored at -70 degrees C prior to their use. All drugs and investigational agents were tested over a range starting from a high concentration at or near the clinical Cmax and decreasing in half-log increments. If the clinical Cmax for an agent had not been determined, the highest concentration tested was 10 microM.
Cell Culture. All cells were maintained in an incubator at 37 degrees C and 5% CO2 with 95% humidity. The PDC lines were cultured according to standard operating procedures established by the NCI PDMR. Briefly, all PDCs were thawed and cultured in Matrigel-coated flasks prepared with a working solution of 1X Ham's F-12 nutrient mix, without supplementation (Invitrogen, Waltham, MA, cat. 11765054), 100 U/mL penicillin-streptomycin (Invitrogen, cat. 15140122), and 2.5% Matrigel (Corning Inc., Corning, NY, cat. 354248) for the first three passages. The 947758-054-R-J2-PDC line was cultured in 6B/Colon 1A media, which includes advanced DMEM/F-12 (Thermo Fisher Scientific, cat. 12634028), 10 mM HEPES (Thermo Fisher Scientific, cat. 15630080), 1X GlutaMAX supplement (Thermo Fisher Scientific, cat. 35050061), 0.1 mg/mL primocin (InvivoGen, cat. ant-pm-2), 10% defined fetal bovine serum, heat inactivated (HyClone Laboratories Inc., cat. SH30070.03HI), 1.25 mM N-Acetyl-L-cysteine (Sigma-Aldrich, cat. A9165), 10 mM nicotinamide (Sigma-Aldrich, cat. N0636), 1X B-27 supplement (Thermo Fisher Scientific, cat. 17504044), 1X N-2 supplement (Thermo Fisher Scientific, cat. 17502048), and 10 microM Y-27632 dihydrochloride (Tocris Bioscience, cat. 1254). The 876862-298-R-J1-PDC was cultured in 6E media, which includes all 6B/Colon 1A media components plus 50% L-WRN conditioned media (ATCC, cat. CRL-3276), 50 ng/mL recombinant human EGF recombinant protein (hEGF; Thermo Fisher Scientific, cat. PHG0311), 10 ng/mL recombinant human fibroblast growth factor 10 (hGFG-10; PeproTech, cat. 100-26), 1 ng/mL recombinant human fibroblast growth factor 2 (hFGF-2; PeproTech, cat. 100-18B), and 1 µM prostaglandin E2 (PGE2; Tocris, cat. 2296). The 227483-062-R1-J1-PDC line was cultured in Panc media, containing all 6E components except hFGF-2, with the addition of 500 nM SB-431542 (Selleckchem, cat. S1067) and 10 nM gastrin (Tocris, cat. 3006). […]

Structures are written as SMILES. pIC50: −log10 of the molar value. “And” between values parts separate entries of the source, which are not always exact repeats. Identical values can stand only once.

Usually viability, T/C stands for the ratio of treated to control. As a reminder, the pIC50 is −log10 of the IC50, conventionally taken in molar units.
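Also: spheroids exposed to agents for 7 days before reading.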
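For viability, T/C in this document: luminescence signal used as a stand-in for viable cells.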

As to `COC1C=CCC(C)C(C)S(=O)(=O)NC(=O)c2ccc3c(c2)N(CC2CCC21)CC1(CCCc2cc(Cl)ccc21)CO3` (centres undefined), the pIC50 was 5.36 and 5.47. The viability, T/C (compound 0.0316 µM) is 88.4% and 110%. Moreover, for the setting “compound 0.1 µM”, the viability, T/C was 101% and 94.2%. Further, the viability, T/C (compound 0.316 µM) was 82% and 79%. Besides, the viability, T/C (compound 1 µM) is 96.1% and 69.6%. The viability, T/C (compound 3.16 µM) was 65.8% and 61.7%. The viability, T/C (compound 10 µM) was 11.2% and 20.1%.

Regarding `COc1ccc([C@@H](O)c2cc(-c3ncnc4cc(N5CCOCC5)ccc34)c(F)cc2Cl)nn1`, the pIC50 is 5.36 and 5.68. In addition, under “compound 0.0316 µM”, the viability, T/C is 88.4% and 91.3%. Also, the viability, T/C (compound 0.1 µM) is 92.5% and 94.2%. The viability, T/C (compound 0.316 µM) was 73% and 78.6%. The viability, T/C (compound 1 µM) is 66.6% and 61.9%. Also, the viability, T/C (compound 3.16 µM) is 59.3% and 44.2%. In addition, the viability, T/C (compound 10 µM) was 35.7% and 31%.

As to `COc1cccc2c1C(=O)c1c(O)c3c(c(O)c1C2=O)CC(O)(C(=O)CO)CC3OC1CC(N)C(O)C(C)O1` (centres undefined), the negative logarithm of the IC50 (pIC50) is greater than 7.50. The viability, T/C (compound 0.0316 µM) was 12.5% and 9.59%. The viability, T/C (compound 0.1 µM) is 7.59% and 5.12%. In addition, the viability, T/C (compound 0.316 µM) is 1.88% and 1.98%. Besides, the viability, T/C (compound 1 µM) was 0.76% and 0.47%. For the same molecule, for the setting “compound 3.16 µM”, the viability, T/C is 3.8% and 3.34%. In addition, the viability, T/C (compound 10 µM) is 8.38% and 5.34%.

As for `Nc1ccccc1NC(=O)c1ccc(CNC(=O)OCc2cccnc2)cc1`, the pIC50 was 6.23 and 6.34. Where the note is “compound 0.0316 µM”, the viability, T/C is 85.8% and 79.5%. Where the note is “compound 0.1 µM”, the viability, T/C was 85.5% and 77.1%. Besides, the viability, T/C (compound 0.316 µM) is 65.3% and 57.9%. In addition, the viability, T/C (compound 1 µM) is 35.8% and 30.4%. For the same molecule, the viability, T/C (compound 3.16 µM) is 13.3% and 12.8%. In addition, the viability, T/C (compound 10 µM) was 2.14% and 1.31%.

As for `Nc1ccn(C2OC(CO)C(O)C2(F)F)c(=O)n1` (centres undefined), the pIC50 is greater than 7.50. The viability, T/C (compound 0.0316 µM) was 10.8% and 6.86%. Besides, the viability, T/C (compound 0.1 µM) is 4.28% and 3.83%. Moreover, the viability, T/C (compound 0.316 µM) is 5.62% and 2.98%. Under “compound 1 µM”, the viability, T/C was 2.41% and 2.75%. In addition, the viability, T/C (compound 3.16 µM) is 3.34% and 2.18%. The viability, T/C (compound 10 µM) is 2.14% and 1.73%.

Regarding `O=C(c1cc(Cc2n[nH]c(=O)c3ccccc23)ccc1F)N1CCN(C(=O)C2CC2)CC1`, the pIC50 was 5.15 and 5.49. In addition, the viability, T/C (compound 0.0316 µM) is 75.9% and 81.2%. The viability, T/C (compound 0.1 µM) is 78.6% and 74%. For the same molecule, the viability, T/C (compound 0.316 µM) is 73.8% and 82.2%. For the same molecule, the viability, T/C (compound 1 µM) was 74.3% and 63.9%. Moreover, for the setting “compound 3.16 µM”, the viability, T/C is 65.9% and 51.8%. Besides, the viability, T/C (compound 10 µM) was 43.2% and 39%.

Consider `O=c1[nH]cc(F)c(=O)[nH]1`, for which the pIC50 is 5.55 and 5.52. Moreover, the viability, T/C (compound 0.0316 µM) is 88.5% and 94.6%. Further, the viability, T/C (compound 0.1 µM) was 82.7% and 110%. Also, the viability, T/C (compound 0.316 µM) was 93.3% and 88.5%. The viability, T/C (compound 1 µM) is 68.9% and 68.5%. For the same molecule, the viability, T/C (compound 3.16 µM) was 50.5% and 51.5%. For the same molecule, the viability, T/C (compound 10 µM) is 45.1% and 41.7%.

These data come from PubChem BioAssay AID2060616 (Molecular Pharmacology Branch, DTP, NCI, 2025).
